Assay results taken from US11279744B2, “Neuropeptide Y fragment capable of releasing hematopoietic stem cells into blood and treating osteoporosis” (Kyungpook National University Industry-Academic Cooperation …, priority 2017, dated 2022).
Entries after “also recorded” stand apart in the source; their conditions may differ. Non-standard residues stand in square brackets, D forms with d. No end group written: not given here.

Each substance was assayed on myelopoiesis stem cells in the bone marrow (assay: Flow cytometry analysis (FACs) of stem cells in bone marrow of osteoporosis animal models). Conditions: OVX mice, 50 μg/kg i.p. twice a day for 4 weeks; bone marrow 1 hour after last dose.
Format: in vivo, mouse
Description: (§1) To make an osteoporosis model, 10-18 12 weeks old female mice per group underwent ovarian ablation. A week later, 50 μg/kg of NPY(21-28), NPY D^25(21-28), NPY D^26(21-28), NPY D^25,26(21-28), Osteopep2, NPY and 100 μl of PBS(Gibco) were intraperitoneally administered twice a day for 4 weeks at 12 hour intervals. Alendronate (Sigma), used as a competitive drug, was intraperitoneally administered once a week for 4 weeks at a dose of 50 μg/kg. As a control group, only Sham model of osteoporosis was performed by subcutaneous dissection of female mouse. Mice were placed in experimental groups using the Block randomization method, and all mouse experiments were approved through the Kyungpook National University Institutional Animal Care and Use Committee.
To examine the changes in the number of myelopoiesis stem cells in the bone marrow of the mouse, the bone marrows of mice were collected and analyzed by FACs using five antibodies such as Lineage, Sca-1, c-kit, CD150, and CD48 as markers of myelopoiesis stem cells. For the analysis of myelopoiesis stem cell, bone marrow collected from the tibias and the femurs in the animal models of osteoporosis injected with each peptide was removed from red blood cells with ammonium chloride solution (Stem Cell Technologies, Inc. 1:4). […] The remaining cells were reacted for 30 minutes at 4° C. using Sca-1-PECY7, c-kit-APC, CD150-PE, and CD48-FITC (BD science) antibodies, and then were analyzed by LSRII (BD science) flow cytometry.
In order to investigate whether the NPY (21-28) of the present invention affects the blood release of myelopoiesis stem cells in the animal models of osteoporosis, the following experiments were carried out according to the methods of Examples 1-1, 1-3, 1-4, and 1-5. […] Weight change was measured weekly, and bone marrow and blood were collected one hour after the last dose at 4 weeks, and the release of myelopoiesis progenitor and stem cells into blood was analyzed. […]

Substance	number of myelopoiesis stem cells remaining in the bone marrow (FACs)
YSALRHYI [NPY (21-28)]	reduced
NPY D^25,26(21-28): peptide in which both the fifth and sixth amino acids of NPY (21-28) are modified to D-form (YSAL[dR][dH]YI)	reduced
NPY D^25(21-28): peptide in which arginine, the fifth amino acid of the amino acid sequence of NPY (21-28), is modified to D-type (YSAL[dR]HYI)	reduced

What follows are substances tested on animal models of osteoporosis (assay: Micro CT bone density in animal models of osteoporosis). Conditions: OVX mice, 50 μg/kg i.p. twice a day for 4 weeks; femur microCT; compared to PBS.
Format: in vivo, mouse
Description: as §1, with “Committee. The femurs were separated from the mouse and refrigerated in 80% ethanol, and in order to measure change of bone density, the bone volume/total volume and trabecular thickness were measured by analyzing the area between 0.7 mm and 2.3 mm from the growth plate baseline with the Quantum FX microCT Imaging System. Femurs were separated from mice after the last administration of NPY (21-28) at 4 weeks. To determine the change of bone density, bone density (bone volume/total volume) and bone tissue thickness (trabecular thickness) were measured with the Quantum FX microCT Imaging System. Femurs were separated from mice after the last administration of NPY D^25(21-28), NPY D^26(21-28), and NPY D^25,26(21-28) at 4 weeks. To determine the change of bone density, bone density (bone volume/total volume) and bone tissue thickness (trabecular thickness) were measured with the Quantum FX microCT Imaging System.” for “Committee.”

Substance	bone tissue thickness (trabecular thickness)	percentage of bone density (BV/TV)
YSALRHYI [NPY (21-28)]	better than that of the Osteopep2 and NPY	better than that of the Osteopep2 and NPY
NPY D^25,26(21-28): peptide in which both the fifth and sixth amino acids of NPY (21-28) are modified to D-form (YSAL[dR][dH]YI)	increased; also recorded: equal to or higher than that of NPY (21-28); also recorded: best effect	increased; also recorded: equal to or higher than that of NPY (21-28); also recorded: best effect
NPY D^25(21-28): peptide in which arginine, the fifth amino acid of the amino acid sequence of NPY (21-28), is modified to D-type (YSAL[dR]HYI)	increased; also recorded: equal to or higher than that of NPY (21-28)	increased; also recorded: equal to or higher than that of NPY (21-28)

Each substance was assayed on osteoclasts in bone marrow (assay: TRAP staining of osteoclasts in bone marrow of osteoporosis animal models). Conditions: OVX mice, 50 μg/kg i.p. twice a day for 4 weeks; compared to PBS.
Format: in vivo, mouse
Description: as §1
(§2) The femurs were separated from the mice and fixed in 4% paraformaldehyde for 24 hours, and tissue was decalcified in 10% EDTA for 5 weeks. It was then dehydrated with a series of diluted alcohols, paraffinized, and prepared into […] paraffin sections.
For TRAP staining, sections were deparaffinized, stained with 1.33 mM Fast Red Violet LB Salt (Sigma-Aldrich) in 50 mM sodium acetate (pH 5.0) containing 225 μM Naphthol AS-MX phosphate (Sigma-Aldrich, St Louis, Mo., USA), 0.84% N, N-dimethylformamide (Sigma-Aldrich) and 50 mM sodium tartrate, and incubated for 30 minutes. After incubation, the sections were washed with distilled water and counterstained with 1% methyl green.
(§3) Histomorphometric analysis was performed using the OsteoMeasure program (Extensive interactive Bone Histomorphometry Analysis System).
After the last administration at 4 weeks of NPY (21-28), the femurs were separated from the mice and the number of osteoclasts in the bone marrow was measured by TRAP staining.
After the last administration at 4 weeks of NPY D^25(21-28), NPY D^26(21-28), and NPY D^25,26(21-28), the femurs were separated from the mice and the number of osteoclasts in the bone marrow was measured by TRAP staining.

Substance	number of TRAP positive osteoclasts in bone marrow (Number of osteoclast/Bone surface)	osteoclast surface (Osteoclast surface/Bone surface)
YSALRHYI [NPY (21-28)]	superior to Osteopep2 and NPY; also recorded: superior to the competitive drug Alendronate	superior to Osteopep2 and NPY; also recorded: superior to the competitive drug Alendronate
NPY D^25,26(21-28): peptide in which both the fifth and sixth amino acids of NPY (21-28) are modified to D-form (YSAL[dR][dH]YI)	reduced; also recorded: highest efficiency	reduced
NPY D^25(21-28): peptide in which arginine, the fifth amino acid of the amino acid sequence of NPY (21-28), is modified to D-type (YSAL[dR]HYI)	reduced	reduced

The substances below were run on osteoblasts in bone marrow (assay: H & E staining of osteoblasts in bone marrow of osteoporosis animal models). Conditions: OVX mice, 50 μg/kg i.p. twice a day for 4 weeks; compared to PBS.
Format: in vivo, mouse
Description: as §1, §2
For H & E staining, the deparaffinized sections were stained with Harris hematoxyline for 8 minutes, washed with distilled water, and stained with Eosin for 1 minute.
as §3
After the last administration of 4 weeks of NPY (21-28), the femurs were separated from the mice, and the number of osteoblasts in bone marrow was measured by H & E staining.
After the last administration of 4 weeks of NPY D^25(21-28), NPY D^26(21-28), and NPY D^25,26(21-28), the femurs were separated from the mice and the number of osteoblasts in bone marrow was measured by H & E staining.

Substance	number of osteoblast (Number of osteoblast/Bone surface)	osteoblast surface (Osteoblast surface/Bone surface)
YSALRHYI [NPY (21-28)]	increased; also recorded: better than that of Osteopep2	increased; also recorded: better than that of Osteopep2
NPY D^25,26(21-28): peptide in which both the fifth and sixth amino acids of NPY (21-28) are modified to D-form (YSAL[dR][dH]YI)	increased	increased
NPY D^25(21-28): peptide in which arginine, the fifth amino acid of the amino acid sequence of NPY (21-28), is modified to D-type (YSAL[dR]HYI)	increased	increased
